System: Orobanche ramosa L.
Experiment: Germination inducer activity in Orobanche ramosa L. (germination rate of seeds)
Type: in vivo
Method: In this Example, the germination inducer activity of Compound 1 on Orobanche ramosa L. was analyzed by measuring the germination rate. Orobanche ramosa L. is a parasitic plant of tomato, which is now classified as Phelipanche ramosa (L.) Pomel. The Orobanche ramosa L. used herein is a species that parasitizes tomatoes native to Portugal. Dried seeds of Orobanche ramosa L. were conditioned for one week in water from 20° C. to 26° C. in a dark and humid place. The compounds to be tested were each added in an amount of 2 mL to a Petri dish so as to give a final concentration of 1 μM or 100 nM (Compound 1), or 0.34 μM (GR24). After incubation from 20° C. to 26° C. in a dark and humid place for 1 week after the addition of the treatment solution, the germination rate was evaluated by counting the number of germinated seeds under a stereomicroscope.
In the table, “Germination” indicates the germination inducer activity of Compound 1. When the relative value of the germination rate was 4% or more, Compound 1 was marked with (+).

`COC(=O)[C@H](CCCCNC(=O)OC1C=C(C)C(=O)O1)NC(=O)OC(C)(C)C` (some centres unmarked) [Compound 1] was tested, and the “germination inducer activity for Orobanche ramosa L.” value (1 μM or 100 nM) was “exhibited germination inducer activity” and the Germination (Compound 1 at 1 μM or 100 nM, 20° C. to 26° C., dark, 1 week) was “+ (When the relative value of the germination rate was 4% or more, Compound 1 was marked with (+))”.

From patent US20250031699A1, “Method for Controlling Parasitic Plants” (AJINOMOTO CO., INC., priority 2022, published 2025)
